Measurements reported in patent publication US12692223B2, “Phenyl-sulfamoyl-benzoic acid derivatives as ERAP1-modulators” (GREY WOLF THERAPEUTICS LIMITED, priority 2021, dated 2026).

The compounds below were run against T1, ERAP1 (Homo sapiens, UniProt Q9NZ08) (assay: ERAP1 mediated hydrolysis of an amide substrate measured in a biochemical system (10-mer inhibition assay)). Conditions: purified ERAP1(37-941)-10His; 10-mer substrate; 23° C. for 1 h; excitation 279 nm, emission 355 nm; read-out: IC50 vs Decapeptide WRVYEKC(Dnp)ALK-acid (where Dnp is Dinitrophenyl maleimide) (10-mer).
T1 construct: Purified ERAP1(37-941)-10His (ERAP1)
Description: Biological Assay 1: ERAP1 Mediated Hydrolysis of an Amide Substrate Measured in a Biochemical System
• 1× Assay buffer (AB): 25 mM Bis-tris propane, 0.05% w/v • Hydroxypropylmethylcellulose pH 7.75 made with Optima grade water • Decapeptide WRVYEKC(Dnp)ALK-acid (where Dnp is Dinitrophenyl maleimide) (10-mer) • L-Leucine 7-amido-4-methylcoumarin (L-AMC) • Purified ERAP1(37-941)-10His (ERAP1) Assay Procedure:
12.5 μL ERAP1 enzyme in 1×AB was combined with 250 nL test compound in DMSO. 12.5 μL of either 240 μM L-AMC in 1×AB or 100 μM 10-mer in 1×AB was added to the reaction and incubated at 23° C. for 1 h. For detection, plates were read at excitation 365 nm and emission 442 nm (L-AMC) or excitation 279 nm and emission 355 nm (10-mer). Compound IC50 was determined using a 4-parameter equation.

T1 sequence (Q9NZ08 37-941): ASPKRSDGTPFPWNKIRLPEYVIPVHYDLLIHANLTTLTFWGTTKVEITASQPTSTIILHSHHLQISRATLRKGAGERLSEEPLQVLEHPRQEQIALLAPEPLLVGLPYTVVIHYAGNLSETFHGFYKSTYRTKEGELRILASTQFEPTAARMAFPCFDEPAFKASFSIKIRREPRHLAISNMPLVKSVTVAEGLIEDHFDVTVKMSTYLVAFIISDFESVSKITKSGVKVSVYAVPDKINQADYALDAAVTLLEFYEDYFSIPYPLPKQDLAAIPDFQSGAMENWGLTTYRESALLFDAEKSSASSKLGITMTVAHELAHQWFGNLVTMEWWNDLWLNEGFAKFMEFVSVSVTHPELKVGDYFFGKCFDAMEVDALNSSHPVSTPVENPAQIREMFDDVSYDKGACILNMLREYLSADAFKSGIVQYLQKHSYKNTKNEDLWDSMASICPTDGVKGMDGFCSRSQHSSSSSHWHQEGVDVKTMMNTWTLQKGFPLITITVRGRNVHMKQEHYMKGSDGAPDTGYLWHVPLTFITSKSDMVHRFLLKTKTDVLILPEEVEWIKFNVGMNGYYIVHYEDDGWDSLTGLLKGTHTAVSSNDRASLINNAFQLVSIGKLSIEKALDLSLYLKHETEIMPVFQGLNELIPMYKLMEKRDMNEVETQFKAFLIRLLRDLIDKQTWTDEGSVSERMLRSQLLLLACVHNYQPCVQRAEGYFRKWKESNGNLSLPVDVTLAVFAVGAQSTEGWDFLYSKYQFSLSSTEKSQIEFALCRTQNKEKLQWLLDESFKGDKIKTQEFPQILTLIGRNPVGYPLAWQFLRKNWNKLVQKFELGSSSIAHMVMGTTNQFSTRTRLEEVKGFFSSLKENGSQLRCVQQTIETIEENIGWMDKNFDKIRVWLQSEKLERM

SMILES | IC50 [nM]
CC1CCCC1Oc1cc(Cl)c(C#N)cc1NS(=O)(=O)c1cc(C(=O)O)ccc1C1CC1 (single isomer, unassigned) [Example 99, 3-(N-(4-chloro-5-cyano-2-((trans-2-methylcyclopentyl)oxy)-phenyl)sulfamoyl)-4-cyclopropylbenzoic acid] | < 1
CC1CCCC1Oc1cc(Cl)c(C#N)cc1NS(=O)(=O)c1cc(C(=O)O)ccc1C1CC1 (single isomer, unassigned) [Example 100, 3-(N-(4-chloro-5-cyano-2-((trans-2-methylcyclopentyl)oxy)-phenyl)sulfamoyl)-4-cyclopropylbenzoic acid] | < 1
COC1CCCC1Oc1cc(Cl)c(C#N)cc1NS(=O)(=O)c1cc(C(=O)O)ccc1C1CC1 (single isomer, unassigned) [Example 103, 3-(N-(4-chloro-5-cyano-2-((trans-2-methoxycyclopentyl)-oxy)phenyl)sulfamoyl)-4-cyclopropylbenzoic acid] | < 1
COC1CCCC1Oc1cc(Cl)c(C#N)cc1NS(=O)(=O)c1cc(C(=O)O)ccc1C1CC1 (single isomer, unassigned) [Example 104, 3-(N-(4-chloro-5-cyano-2-((trans-2-methoxycyclopentyl)-oxy)phenyl)sulfamoyl)-4-cyclopropylbenzoic acid] | > 5
N#Cc1cc(NS(=O)(=O)c2cc(C(=O)O)ccc2C2CC2)c(OC2CCC23CC3)cc1Cl (single isomer, unassigned) [Example 106, 3-(N-(4-chloro-5-cyano-2-(spiro[2.3]hexan-4-yloxy)phenyl)-sulfamoyl)-4-cyclopropylbenzoic acid] | < 1
N#Cc1cc(NS(=O)(=O)c2cc(C(=O)O)ccc2C2CC2)c(OC2CCC23CC3)cc1Cl (single isomer, unassigned) [Example 107, 3-(N-(4-chloro-5-cyano-2-(spiro[2.3]hexan-4-yloxy)phenyl)-sulfamoyl)-4-cyclopropylbenzoic acid] | < 1
CC1CC(Oc2cc(Cl)c(C#N)cc2NS(=O)(=O)c2cc(C(=O)O)ccc2C2CC2)C1 (single isomer, unassigned) [Example 114, 3-(N-(4-chloro-5-cyano-2-(3-methylcyclobutoxy)phenyl)sulfamoyl)-4-cyclopropylbenzoic acid] | < 1
CC1CC(Oc2cc(Cl)c(C#N)cc2NS(=O)(=O)c2cc(C(=O)O)ccc2C2CC2)C1 (single isomer, unassigned) [Example 115, 3-(N-(4-chloro-5-cyano-2-(3-methylcyclobutoxy)phenyl)sulfamoyl)-4-cyclopropylbenzoic acid] | < 1
C#CC1CCCC1Oc1cc(Cl)c(C#N)cc1NS(=O)(=O)c1cc(C(=O)O)ccc1C1CC1 (single isomer, unassigned) [Example 116, 3-(N-(4-chloro-5-cyano-2-((trans-2-ethynylcyclopentyl)oxy)phenyl)sulfamoyl)-4-cyclopropylbenzoic acid] | > 5
C#CC1CCCC1Oc1cc(Cl)c(C#N)cc1NS(=O)(=O)c1cc(C(=O)O)ccc1C1CC1 (single isomer, unassigned) [Example 117, 3-(N-(4-chloro-5-cyano-2-((trans-2-ethynylcyclopentyl)oxy)phenyl)sulfamoyl)-4-cyclopropylbenzoic acid] | < 1
CC1CCC1Oc1cc(Cl)c(C#N)cc1NS(=O)(=O)c1cc(C(=O)O)ccc1C1CC1 (single isomer, unassigned) [Example 120, 3-(N-(4-chloro-5-cyano-2-(2-methylcyclobutoxy)phenyl)sulfamoyl)-4-cyclopropylbenzoic acid] | < 1
CC1CCC1Oc1cc(Cl)c(C#N)cc1NS(=O)(=O)c1cc(C(=O)O)ccc1C1CC1 (single isomer, unassigned) [Example 121, 3-(N-(4-chloro-5-cyano-2-(2-methylcyclobutoxy)phenyl)sulfamoyl)-4-cyclopropylbenzoic acid] | < 1
CC1CCC1Oc1cc(Cl)c(C#N)cc1NS(=O)(=O)c1cc(C(=O)O)ccc1C1CC1 (single isomer, unassigned) [Example 122, 3-(N-(4-chloro-5-cyano-2-(2-methylcyclobutoxy)phenyl)sulfamoyl)-4-cyclopropylbenzoic acid] | 1 to 5
CC1CCC1Oc1cc(Cl)c(C#N)cc1NS(=O)(=O)c1cc(C(=O)O)ccc1C1CC1 (single isomer, unassigned) [Example 123, 3-(N-(4-chloro-5-cyano-2-(2-methylcyclobutoxy)phenyl)sulfamoyl)-4-cyclopropylbenzoic acid] | < 1
C#CC1CCCC1Oc1cc(Cl)c(C#N)cc1NS(=O)(=O)c1cc(C(=O)O)ccc1C1CC1 (single isomer, unassigned) [Example 126, 3-(N-(4-chloro-5-cyano-2-((cis-2-ethynylcyclopentyl)oxy)phenyl)sulfamoyl)-4-cyclopropylbenzoic acid] | < 1
C#CC1CCCC1Oc1cc(Cl)c(C#N)cc1NS(=O)(=O)c1cc(C(=O)O)ccc1C1CC1 (single isomer, unassigned) [Example 127, 3-(N-(4-chloro-5-cyano-2-((cis-2-ethynylcyclopentyl)oxy)phenyl)sulfamoyl)-4-cyclopropylbenzoic acid] | > 5
N#Cc1cc(NS(=O)(=O)c2cc(C(=O)O)ccc2C2CC2)c(OC2CCC2O)cc1Cl (single isomer, unassigned) [Example 128, 3-(N-(4-chloro-5-cyano-2-(trans-2-hydroxycyclobutoxy)phenyl)sulfamoyl)-4-cyclopropylbenzoic acid] | < 1
N#Cc1cc(NS(=O)(=O)c2cc(C(=O)O)ccc2C2CC2)c(OC2CCC2O)cc1Cl (single isomer, unassigned) [Example 129, 3-(N-(4-chloro-5-cyano-2-(trans-2-hydroxycyclobutoxy)phenyl)sulfamoyl)-4-cyclopropylbenzoic acid] | > 5
N#Cc1cc(NS(=O)(=O)c2cc(C(=O)O)ccc2C2CC2)c(OC2CCC2C2CC2)cc1Cl (single isomer, unassigned) [Example 130, 3-(N-(4-chloro-5-cyano-2-(2-cyclopropylcyclobutoxy)phenyl)sulfamoyl)-4-cyclopropylbenzoic acid] | 1 to 5
N#Cc1cc(NS(=O)(=O)c2cc(C(=O)O)ccc2C2CC2)c(OC2CCC2C2CC2)cc1Cl (single isomer, unassigned) [Example 131, 3-(N-(4-chloro-5-cyano-2-(2-cyclopropylcyclobutoxy)phenyl)sulfamoyl)-4-cyclopropylbenzoic acid] | < 1
N#Cc1cc(NS(=O)(=O)c2cc(C(=O)O)ccc2C2CC2)c(OC2CCC2C2CC2)cc1Cl (single isomer, unassigned) [Example 132, 3-(N-(4-chloro-5-cyano-2-(2-cyclopropylcyclobutoxy)phenyl)sulfamoyl)-4-cyclopropylbenzoic acid] | 1 to 5
N#Cc1cc(NS(=O)(=O)c2cc(C(=O)O)ccc2C2CC2)c(OC2CCC2C2CC2)cc1Cl (single isomer, unassigned) [Example 133, 3-(N-(4-chloro-5-cyano-2-(2-cyclopropylcyclobutoxy)phenyl)sulfamoyl)-4-cyclopropylbenzoic acid] | 1 to 5
N#Cc1cc(NS(=O)(=O)c2cc(C(=O)O)ccc2C2CC2)c(OC2CCC2O)cc1Cl (single isomer, unassigned) [Example 135, 3-(N-(4-chloro-5-cyano-2-(cis-2-hydroxycyclobutoxy)phenyl)sulfamoyl)-4-cyclopropylbenzoic acid] | > 5
N#Cc1cc(NS(=O)(=O)c2cc(C(=O)O)ccc2C2CC2)c(OC2CCC2O)cc1Cl (single isomer, unassigned) [Example 136, 3-(N-(4-chloro-5-cyano-2-(csi-2-hydroxycyclobutoxy)phenyl)sulfamoyl)-4-cyclopropylbenzoic acid] | < 1
COC1CCC1Oc1cc(Cl)c(C#N)cc1NS(=O)(=O)c1cc(C(=O)O)ccc1C1CC1 (single isomer, unassigned) [Example 138, 3-(N-(4-chloro-5-cyano-2-(trans-2-methoxycyclobutoxy)phenyl)sulfamoyl)-4-cyclopropylbenzoic acid] | < 1
COC1CCC1Oc1cc(Cl)c(C#N)cc1NS(=O)(=O)c1cc(C(=O)O)ccc1C1CC1 (single isomer, unassigned) [Example 139, 3-(N-(4-chloro-5-cyano-2-(trans-2-methoxycyclobutoxy)phenyl)sulfamoyl)-4-cyclopropylbenzoic acid] | > 5
N#Cc1cc(NS(=O)(=O)c2cc(C(=O)O)ccc2C2CC2)c(OC2CCC(F)(F)C2)cc1Cl (single isomer, unassigned) [Example 140, 3-(N-(4-chloro-5-cyano-2-((3,3-difluorocyclopentyl)oxy)phenyl)sulfa-moyl)-4-cyclopropylbenzoic acid] | < 1
N#Cc1cc(NS(=O)(=O)c2cc(C(=O)O)ccc2C2CC2)c(OC2CCC(F)(F)C2)cc1Cl (single isomer, unassigned) [Example 141, 3-(N-(4-chloro-5-cyano-2-((3,3-difluorocyclopentyl)oxy)phenyl)sulfa-moyl)-4-cyclopropylbenzoic acid] | < 1
CO[C@@H]1CCC[C@@H]1Oc1cc(Cl)c(C#N)cc1NS(=O)(=O)c1cc(C(=O)O)ccc1C1CC1 (single isomer, unassigned) [Example 142, 3-(N-(4-chloro-5-cyano-2-((cis-2-methoxycyclopentyl)oxy)phenyl)sulfa-moyl)-4-cyclopropylbenzoic acid] | < 1
